Experimental data taken from ChEMBL document CHEMBL4359816, “Discovery and Optimization of Quinolinone Derivatives as Potent, Selective, and Orally Bioavailable Mutant Isocitrate Dehydrogenase 1 (mIDH1) Inhibitors” (J Med Chem, 2019).
Converted amounts (≈) assume the structure as drawn.

How the values were obtained:
Cytochrome P450 3A4 [1] = target: T1, Cytochrome P450 3A4 (Homo sapiens, UniProt P08684); test: Time dependent inhibition of CYP3A4 (unknown origin) at <5 uM using midazolam as substrate; format: ADME
[2] = target: ATP-dependent translocase ABCB1 (Homo sapiens, UniProt P08183); test: Substrate activity at Pgp (unknown origin) assessed as net efflux ratio by measuring ratio of efflux ratio in MDCK cells harboring MDR1 (unknown origin) to efflux ratio in MDCK cells; format: ADME, cell-based
[3] = Protein binding in rat plasma; format: ADME, cell-free; details: read-out: PPB (converted)
[4] = Half-life in dog at 0.5 mg/kg, iv; format: ADME, organism-based, Canis lupus familiaris; details: in vivo
[5] = target: NET (noradrenaline transporter) (Homo sapiens, UniProt P23975); test: Displacement of [3H]nisoxetine from recombinant human NET receptor at 10 uM after 120 mins by scintillation counting method relative to control; details: probe [3H]nisoxetine
Mus musculus [6] = test: In vivo inhibition of IDH1 R132C mutant in human HCT116 cells xenografted in po dosed BALB/c nude mouse assessed as reduction in tumor 2-HG level administered at 12 hrs intervals and measured up to 24 hrs post last dose by LC-MS analysis; format: functional
[7] = target: Voltage-gated inwardly rectifying potassium channel KCNH2 (Homo sapiens, UniProt Q12809); test: Inhibition of human ERG by patch clamp method
Cytochrome P450 3A4 [8] = target: T1, Cytochrome P450 3A4; test: Time dependent inhibition of CYP3A4 (unknown origin) at <5 uM pre-incubated for 30 mins followed by testosterone substrate addition in absence of NADPH; format: ADME
[9] = Oral bioavailability in mouse at 5 mg/kg; format: ADME, organism-based; details: in vivo
[10] = target: Isocitrate dehydrogenase [NADP] cytoplasmic (Homo sapiens, UniProt O75874, R132S); test: Inhibition of human Myc-DDK-tagged IDH1 R132S mutant expressed in human U87MG cells assessed as reduction in 2-HG levels after 24 hrs by RapidFire high-throughput mass spectrometry assay; format: cell-based
Mus musculus [11] = format: functional; details: BALB/c, HCT-116, po
CYP2D6 = CYP2D6 (Homo sapiens, UniProt P10635); test: Inhibition of CYP2D6 (unknown origin) at 10 uM relative to control; format: ADME
CYP2C19 = CYP2C19 (Homo sapiens, UniProt P33261); test: Inhibition of CYP2C19 (unknown origin) at 10 uM relative to control; format: ADME
Cytochrome P450 3A4 [12] = target: T1, Cytochrome P450 3A4; test: Time dependent inhibition of CYP3A4 (unknown origin) at <5 uM pre-incubated for 30 mins followed by midazolam substrate addition in absence of NADPH; format: ADME
[13] = Clearance in mouse at 1 mg/kg, iv or 5 mg/kg, po; format: ADME, organism-based; details: in vivo
[14] = Apparent permeability of the compound across basolateral side to apical side in human Caco2 cells; format: ADME, cell-based; details: Caco-2
[15] = Total AUC (infinity) in mouse at 1 mg/kg, iv or 5 mg/kg, po; format: ADME, organism-based; details: in vivo
[16] = target: T2, Isocitrate dehydrogenase [NADP] cytoplasmic (Homo sapiens, UniProt O75874, R132C); test: Inhibition of IDH1 R132C mutant in human HCT116 cells assessed as reduction in 2-HG levels after 24 hrs by RapidFire high-throughput mass spectrometry assay; format: cell-based
[17] = fAUC (infinity) in rat at 1 mg/kg, iv or 5 mg/kg, po; format: ADME, organism-based; details: in vivo
[18] = Octanol/aqueous buffer partition coefficient, log D of the compound at pH 7.4; format: physicochemical
Mus musculus [19] = format: functional; details: BALB/c, HCT-116, po; remark: listed apart in the source
[20] = Clearance in dog at 0.5 mg/kg, iv; format: ADME, organism-based, Canis lupus familiaris; details: in vivo
[21] = Permeability of the compound by PAMPA; format: ADME; details: read-out: permeability
[22] = Apparent permeability from apical side to basolateral side in MDCK cells; format: ADME, cell-based, Canis lupus familiaris; details: dog
[23] = Total Cmax in mouse at 1 mg/kg, iv or 5 mg/kg, po; format: ADME, organism-based; details: in vivo
[24] = Free drug concentration in plasma of po dosed BALB/c nude mouse xenografted with human HCT116 harboring R132C mutant administered at 12 hrs intervals and measured after 4 to 24 hrs post last dose; format: ADME, organism-based; details: in vivo
Cytochrome P450 3A4 [25] = target: T1, Cytochrome P450 3A4; test: Time dependent inhibition of CYP3A4 (unknown origin) at <5 uM pre-incubated for 30 mins followed by testosterone substrate addition in presence of NADPH; format: ADME
[26] = fAUC (infinity) in mouse at 1 mg/kg, iv or 5 mg/kg, po; format: ADME, organism-based; details: in vivo
[27] = Cmax in rat at 1 mg/kg, iv or 5 mg/kg, po; format: ADME, organism-based; details: in vivo
Cytochrome P450 3A4 [28] = target: T1, Cytochrome P450 3A4; test: Time dependent inhibition of CYP3A4 (unknown origin) at <5 uM using testosterone as substrate; format: ADME
CYP3A4 = CYP3A4 (Homo sapiens, UniProt P08684); test: Inhibition of CYP3A4 (unknown origin) at 10 uM relative to control; format: ADME
[29] = Half-life in human hepatocytes; format: ADME, cell-based, Hepatocyte
[30] = target: Isocitrate dehydrogenase [NADP] cytoplasmic (Homo sapiens, UniProt O75874); test: Inhibition of wild-type IDH1 (unknown origin) by NADPH fluorescence based assay
[31] = Efflux ratio of apparent permeability from basolateral side to apical side over apical side to basolateral side in human Caco2 cells; format: ADME, cell-based; details: Caco-2
[32] = Total AUC (infinity) in rat at 1 mg/kg, iv or 5 mg/kg, po; format: ADME, organism-based; details: in vivo
MDR1 (P-gp) [33] = test: Efflux ratio of apparent permeability from basolateral side to apical side over apical side to basolateral side in MDCK cells harboring MDR1 (unknown origin); format: ADME, cell-based, Canis lupus familiaris; details: dog
[34] = target: Isocitrate dehydrogenase [NADP], mitochondrial (Homo sapiens, UniProt P48735, R140Q); test: Inhibition of IDH2 R140Q mutant (unknown origin)
[35] = Kinetic solubility of the compound; format: physicochemical; details: read-out: Kinetic_solubility
[36] = Protein binding in dog plasma; format: ADME, cell-free, Canis lupus familiaris; details: read-out: PPB (converted)
[37] = Half-life in rat at 1 mg/kg, iv or 5 mg/kg, po; format: ADME, organism-based; details: in vivo
[38] = Protein binding in mouse plasma; format: ADME, cell-free; details: read-out: PPB (converted)
[39] = target: T2, Isocitrate dehydrogenase [NADP] cytoplasmic; test: Inhibition of human Myc-DDK-tagged IDH1 R132C mutant assessed as reduction in NADPH consumption pre-incubated for 15 mins followed by alpha-ketoglutarate substrate and NADPH addition after 45 mins by diaphorase and resazurin dye based assay
[40] = Protein binding in human plasma; format: ADME, cell-free; details: read-out: PPB (converted)
[41] = Efflux ratio of apparent permeability from basolateral side to apical side over apical side to basolateral side in MDCK cells; format: ADME, cell-based, Canis lupus familiaris; details: dog
[42] = Apparent permeability of the compound across apical side to basolateral side in human Caco2 cells; format: ADME, cell-based; details: Caco-2
MDR1 (P-gp) [43] = test: Apparent permeability from basolateral side to apical side in MDCK cells harboring MDR1 (unknown origin); format: ADME, cell-based, Canis lupus familiaris; details: dog
[44] = Metabolic stability in mouse liver microsomes assessed as compound remaining after 30 mins; format: ADME, Microsome; details: read-out: Stability
MDR1 (P-gp) [45] = test: Apparent permeability from apical side to basolateral side in MDCK cells harboring MDR1 (unknown origin); format: ADME, cell-based, Canis lupus familiaris; details: dog
[46] = Metabolic stability in rat liver microsomes assessed as compound remaining after 30 mins; format: ADME, Microsome; details: read-out: Stability
CYP2C9 = CYP2C9 (Homo sapiens, UniProt P11712); test: Inhibition of CYP2C9 (unknown origin) at 10 uM relative to control; format: ADME

T1 sequence (P08684 whole entry): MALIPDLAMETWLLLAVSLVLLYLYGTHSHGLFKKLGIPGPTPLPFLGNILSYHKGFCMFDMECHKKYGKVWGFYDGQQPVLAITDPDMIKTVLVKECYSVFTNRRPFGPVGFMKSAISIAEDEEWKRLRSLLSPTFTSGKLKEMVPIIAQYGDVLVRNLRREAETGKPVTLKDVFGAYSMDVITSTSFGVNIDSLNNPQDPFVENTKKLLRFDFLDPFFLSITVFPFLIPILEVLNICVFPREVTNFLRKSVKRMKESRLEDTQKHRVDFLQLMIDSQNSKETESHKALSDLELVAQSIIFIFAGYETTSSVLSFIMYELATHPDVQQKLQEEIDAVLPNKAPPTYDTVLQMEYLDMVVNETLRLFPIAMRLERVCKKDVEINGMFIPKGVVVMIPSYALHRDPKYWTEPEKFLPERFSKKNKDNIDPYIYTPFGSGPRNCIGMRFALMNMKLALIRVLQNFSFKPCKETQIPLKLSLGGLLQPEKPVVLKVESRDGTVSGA
T2 sequence (O75874 2-414 R132C limits assumed): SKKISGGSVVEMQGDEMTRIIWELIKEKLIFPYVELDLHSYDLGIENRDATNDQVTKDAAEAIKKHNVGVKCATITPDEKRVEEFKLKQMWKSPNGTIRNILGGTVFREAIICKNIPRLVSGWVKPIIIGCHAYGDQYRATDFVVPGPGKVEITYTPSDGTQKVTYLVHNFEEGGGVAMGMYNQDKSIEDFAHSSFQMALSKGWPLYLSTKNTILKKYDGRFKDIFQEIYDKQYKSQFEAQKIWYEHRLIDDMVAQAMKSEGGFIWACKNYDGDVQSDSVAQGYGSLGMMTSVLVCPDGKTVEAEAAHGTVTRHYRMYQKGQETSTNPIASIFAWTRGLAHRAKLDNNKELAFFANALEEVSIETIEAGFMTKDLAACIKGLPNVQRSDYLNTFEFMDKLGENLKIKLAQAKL
Chain of ATP-dependent translocase ABCB1 (P08183 whole entry): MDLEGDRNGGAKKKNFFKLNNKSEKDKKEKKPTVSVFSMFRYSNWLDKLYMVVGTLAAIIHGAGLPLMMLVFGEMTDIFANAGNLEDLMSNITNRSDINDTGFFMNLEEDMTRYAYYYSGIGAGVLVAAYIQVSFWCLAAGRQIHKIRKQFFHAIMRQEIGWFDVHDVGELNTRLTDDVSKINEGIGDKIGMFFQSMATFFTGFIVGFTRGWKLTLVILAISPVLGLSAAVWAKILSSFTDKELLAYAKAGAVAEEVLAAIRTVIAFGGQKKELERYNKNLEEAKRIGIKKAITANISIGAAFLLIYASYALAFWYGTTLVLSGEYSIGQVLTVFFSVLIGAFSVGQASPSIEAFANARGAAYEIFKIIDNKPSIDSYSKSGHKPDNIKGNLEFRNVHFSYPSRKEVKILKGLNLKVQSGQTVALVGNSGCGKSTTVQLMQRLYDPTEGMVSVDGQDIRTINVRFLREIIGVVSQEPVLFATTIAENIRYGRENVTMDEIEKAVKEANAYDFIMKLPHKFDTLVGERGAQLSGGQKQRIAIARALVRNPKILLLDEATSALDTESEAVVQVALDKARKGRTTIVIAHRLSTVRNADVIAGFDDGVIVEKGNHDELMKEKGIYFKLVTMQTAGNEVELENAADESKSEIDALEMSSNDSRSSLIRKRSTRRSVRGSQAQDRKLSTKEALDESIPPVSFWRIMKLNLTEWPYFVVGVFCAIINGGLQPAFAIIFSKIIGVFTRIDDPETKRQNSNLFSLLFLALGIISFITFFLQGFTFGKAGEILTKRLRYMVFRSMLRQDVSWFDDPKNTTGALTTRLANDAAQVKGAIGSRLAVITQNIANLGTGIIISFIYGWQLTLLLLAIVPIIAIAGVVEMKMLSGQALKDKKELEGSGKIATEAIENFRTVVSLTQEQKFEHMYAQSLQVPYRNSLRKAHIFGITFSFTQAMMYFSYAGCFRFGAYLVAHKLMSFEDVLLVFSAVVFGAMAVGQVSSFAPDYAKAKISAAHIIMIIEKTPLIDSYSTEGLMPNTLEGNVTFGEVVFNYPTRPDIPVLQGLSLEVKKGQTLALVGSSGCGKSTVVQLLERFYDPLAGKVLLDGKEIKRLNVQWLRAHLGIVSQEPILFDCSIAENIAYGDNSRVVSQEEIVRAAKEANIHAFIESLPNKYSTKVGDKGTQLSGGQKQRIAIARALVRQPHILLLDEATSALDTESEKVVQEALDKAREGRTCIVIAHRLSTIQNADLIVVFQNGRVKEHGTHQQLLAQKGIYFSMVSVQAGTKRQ
Chain of Isocitrate dehydrogenase [NADP] cytoplasmic (Homo sapiens, UniProt O75874) (O75874 whole entry): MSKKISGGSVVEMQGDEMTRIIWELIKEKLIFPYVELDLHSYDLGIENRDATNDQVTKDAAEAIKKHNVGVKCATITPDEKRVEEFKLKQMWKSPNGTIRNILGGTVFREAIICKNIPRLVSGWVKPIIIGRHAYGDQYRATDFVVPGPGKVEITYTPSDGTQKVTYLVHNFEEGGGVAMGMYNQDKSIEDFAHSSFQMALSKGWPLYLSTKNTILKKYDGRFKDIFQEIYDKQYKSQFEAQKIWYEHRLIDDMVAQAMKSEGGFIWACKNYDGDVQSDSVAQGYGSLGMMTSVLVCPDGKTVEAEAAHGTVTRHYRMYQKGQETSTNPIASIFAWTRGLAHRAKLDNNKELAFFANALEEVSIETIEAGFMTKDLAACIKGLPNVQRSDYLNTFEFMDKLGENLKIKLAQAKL
Chain of Voltage-gated inwardly rectifying potassium channel KCNH2 (Q12809 whole entry): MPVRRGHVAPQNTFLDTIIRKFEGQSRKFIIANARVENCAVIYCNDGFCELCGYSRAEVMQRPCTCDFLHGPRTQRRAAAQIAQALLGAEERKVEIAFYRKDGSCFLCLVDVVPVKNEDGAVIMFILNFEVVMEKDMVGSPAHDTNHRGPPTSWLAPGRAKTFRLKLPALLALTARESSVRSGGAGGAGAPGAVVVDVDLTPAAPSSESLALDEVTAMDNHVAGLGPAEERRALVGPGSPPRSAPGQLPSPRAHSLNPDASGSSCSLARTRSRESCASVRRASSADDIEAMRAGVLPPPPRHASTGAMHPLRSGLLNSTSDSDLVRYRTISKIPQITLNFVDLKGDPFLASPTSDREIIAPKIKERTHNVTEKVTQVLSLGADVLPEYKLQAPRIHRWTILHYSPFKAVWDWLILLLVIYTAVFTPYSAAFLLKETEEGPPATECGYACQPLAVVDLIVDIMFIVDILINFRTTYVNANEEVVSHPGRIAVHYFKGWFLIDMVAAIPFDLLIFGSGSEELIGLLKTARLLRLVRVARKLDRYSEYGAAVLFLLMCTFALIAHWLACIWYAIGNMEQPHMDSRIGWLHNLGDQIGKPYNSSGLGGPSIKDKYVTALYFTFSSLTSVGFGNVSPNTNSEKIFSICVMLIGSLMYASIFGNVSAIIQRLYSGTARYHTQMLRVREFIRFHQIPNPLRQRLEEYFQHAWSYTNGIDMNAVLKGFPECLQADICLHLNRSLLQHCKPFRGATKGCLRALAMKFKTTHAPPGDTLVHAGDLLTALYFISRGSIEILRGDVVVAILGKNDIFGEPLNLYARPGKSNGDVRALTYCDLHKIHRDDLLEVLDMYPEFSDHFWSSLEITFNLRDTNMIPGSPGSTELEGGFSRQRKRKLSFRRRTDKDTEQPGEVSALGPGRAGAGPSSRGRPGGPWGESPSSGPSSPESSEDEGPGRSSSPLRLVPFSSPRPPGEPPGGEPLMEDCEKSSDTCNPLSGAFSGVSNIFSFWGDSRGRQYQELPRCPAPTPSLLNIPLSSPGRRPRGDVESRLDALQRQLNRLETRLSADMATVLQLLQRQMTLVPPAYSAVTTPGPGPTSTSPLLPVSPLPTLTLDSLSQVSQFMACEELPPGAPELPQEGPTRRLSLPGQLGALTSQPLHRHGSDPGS
Chain of Isocitrate dehydrogenase [NADP] cytoplasmic (Homo sapiens, UniProt O75874, R132S) (O75874 2-414 R132S limits assumed): as the sequence (O75874 2-414 R132C limits assumed) above, with C131S counted along it
Chain of CYP3A4 (P08684 whole entry): as the sequence (P08684 whole entry) above
Chain of NET (noradrenaline transporter) (P23975 whole entry): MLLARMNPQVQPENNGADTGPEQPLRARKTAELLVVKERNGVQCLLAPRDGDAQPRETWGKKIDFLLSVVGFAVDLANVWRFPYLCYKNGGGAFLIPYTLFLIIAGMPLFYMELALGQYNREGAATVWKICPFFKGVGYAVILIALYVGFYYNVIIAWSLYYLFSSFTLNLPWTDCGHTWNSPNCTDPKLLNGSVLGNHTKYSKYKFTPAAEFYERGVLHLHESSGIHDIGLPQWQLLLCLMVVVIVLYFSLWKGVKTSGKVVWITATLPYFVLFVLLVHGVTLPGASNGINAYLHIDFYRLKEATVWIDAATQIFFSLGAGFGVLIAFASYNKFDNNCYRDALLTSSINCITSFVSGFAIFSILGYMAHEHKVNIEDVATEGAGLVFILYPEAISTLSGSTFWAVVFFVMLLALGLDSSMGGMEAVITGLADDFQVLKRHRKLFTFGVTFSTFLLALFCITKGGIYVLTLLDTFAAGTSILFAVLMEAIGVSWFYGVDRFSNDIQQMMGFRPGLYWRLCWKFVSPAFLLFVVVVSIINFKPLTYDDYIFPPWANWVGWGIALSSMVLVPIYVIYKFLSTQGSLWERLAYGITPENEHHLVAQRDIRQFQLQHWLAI
Chain of CYP2D6 (P10635 whole entry): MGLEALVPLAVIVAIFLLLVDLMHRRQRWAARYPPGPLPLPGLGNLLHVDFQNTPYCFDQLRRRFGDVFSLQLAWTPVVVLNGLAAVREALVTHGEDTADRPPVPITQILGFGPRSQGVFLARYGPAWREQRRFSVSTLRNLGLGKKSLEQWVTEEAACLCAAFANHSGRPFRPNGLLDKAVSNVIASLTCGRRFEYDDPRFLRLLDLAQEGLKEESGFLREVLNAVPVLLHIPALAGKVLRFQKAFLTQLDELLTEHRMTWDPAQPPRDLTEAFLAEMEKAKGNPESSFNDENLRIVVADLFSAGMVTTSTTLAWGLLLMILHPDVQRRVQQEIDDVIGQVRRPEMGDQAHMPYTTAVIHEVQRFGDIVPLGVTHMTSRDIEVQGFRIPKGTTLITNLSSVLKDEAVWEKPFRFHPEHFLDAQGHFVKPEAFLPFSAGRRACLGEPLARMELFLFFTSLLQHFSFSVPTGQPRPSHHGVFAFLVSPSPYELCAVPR

TDI (Cytochrome P450 3A4 [1]): Not Active | Ratio [2]: 1.89 | fraction unbound [3]: 0.0203 | half-life [4]: 5.2 h | inhibition at 2 h, 10 µM [5]: > 50% | TDI (Cytochrome P450 3A4 [8]): Not Active | bioavailability [9]: 130% | IC50 [10]: 1.49 µM | inhibition at 10 µM (CYP2D6): 10.2% | inhibition at 10 µM (CYP2C19): 22.7% | TDI (Cytochrome P450 3A4 [12]): Not Active | clearance [13]: 3.3 mL/min/kg | Papp B→A [14]: 8.64 ×10⁻⁶ cm/s | AUC(0-inf) [15]: 107 µM·h | IC50 [16]: 0.233 µM | fAUC [17]: 0.459 µM·h | logD [18]: 2.68 | clearance [20]: 7.7 mL/min/kg | Papp [21]: 18 ×10⁻⁶ cm/s | Papp A→B [22]: 12.6 ×10⁻⁶ cm/s | Cmax [23]: 5.9 µM | Drug uptake(free) [24]: Dose-dependent effect | TDI (Cytochrome P450 3A4 [25]): Not Active | fAUC [26]: 2.06 µM·h | Cmax [27]: 3.8 µM | TDI (Cytochrome P450 3A4 [28]): Not Active | inhibition at 10 µM (CYP3A4): 15.4% | half-life [29]: 4.32 h | IC50 [30]: 35 µM | efflux ratio [31]: 1 | AUC(0-inf) [32]: 22.6 µM·h | efflux ratio (MDR1 (P-gp) [33]): 1.19 | Ratio IC50 (Homo sapiens): 200 | IC50 [34]: 76.6 µM | solubility kinetic [35]: 10.5 µM (≈ 3.74 µg/mL) | fraction unbound [36]: 0.0369 | half-life [37]: 2.2 h | fraction unbound [38]: 0.0193 | IC50 [39]: 0.13 µM | fraction unbound [40]: 0.019 | efflux ratio [41]: 0.63 | Papp A→B [42]: 8.66 ×10⁻⁶ cm/s | Papp B→A (MDR1 (P-gp) [43]): 9.93 ×10⁻⁶ cm/s | remaining at 0.5 h [44]: 100 to 106% | Papp A→B (MDR1 (P-gp) [45]): 8.35 ×10⁻⁶ cm/s | remaining at 0.5 h [46]: 94 to 100% | inhibition at 10 µM (CYP2C9): 13.6%
Compound: COc1nc(N[C@@H](C)c2cc3cc(Cl)ccc3[nH]c2=O)ncc1C#N
fIC50 (Mus musculus [6]): 46 nM | IC50 [7]: 3.2 µM | inhibition in vivo at 12.5 mg/kg (Mus musculus [11]): > 90% | inhibition in vivo at 25 mg/kg (Mus musculus [19]): > 90%
